Laboratory results from patent publication US20120220564A1, “SELECTIVE CALCIUM CHANNEL MODULATORS” (Zalicus Pharmaceuticals Ltd., priority 2009, published 2012).

Assays:
[1] = system: minimal muscular or neurological impairment (rotarod); assay: Mouse rotarod assay; assay type: in vivo, mice
Method: To assess a compound's undesirable side effects (toxicity), animals can be monitored for overt signs of impaired neurological or muscular function. In mice, the rotarod procedure (Dunham and Miya, J. Am. Pharmacol. Assoc. 46:208-209 (1957)) is used to disclose minimal muscular or neurological impairment (MMI). When a mouse is placed on a rod that rotates at a speed of 6 rpm, the animal can maintain its equilibrium for long periods of time. The animal is considered toxic if it falls off this rotating rod three times during a 1-min period.

[2] = system: Rat SNL tactile allodynia; assay: L5/L6 spinal nerve ligation (SNL) Chung pain model, tactile allodynia (von Frey); assay type: in vivo; details: for % Antiallodynia (Mean ± SD): 30 mg/kg PO, n = 7-8; for anti-allodynia effects: second repetition of the study, n=9
Text: The Spinal Nerve Ligation is an animal model representing peripheral nerve injury generating a neuropathic pain syndrome. In this model experimental animals develop the clinical symptoms of tactile allodynia and hyperalgesia. L5/L6 Spinal nerve ligation (SNL) injury was induced using the procedure of Kim and Chung (Kim et al., Pain 50:355-363 (1992)) in male Sprague-Dawley rats (Harlan; Indianapolis, Ind.) weighing 200 to 250 grams.
Anaesthesia was induced with 2% isofluorane in O2 at 2 L/min and maintained with 0.5% isofluorane in O2. Rats were then shaved and aseptically prepared for surgeries. A 2 cm paraspinal incision was made at the level of L4-S2. L4/L5 was exposed by removing the transverse process above the nerves with a small rongeur. The L5 spinal nerve is the larger of the two visible nerves below the transverse process and lies closest to the spine. The L6 spinal nerve is located beneath the corner of the slope bone. A home-made glass Chung rod was used to hook L5 or L6 and a pre-made slip knot of 4.0 silk suture was placed on the tip of the rod just above the nerve and pulled underneath to allow for the tight ligation. The L5 and L6 spinal nerves were tightly ligated distal to the dorsal root ganglion. The incision was closed, and the animals were allowed to recover for 5 days.
Sham control rats underwent the same operation and handling as the experimental animals, but without SNL.
Prior to initiating drug delivery, baseline behavioural testing data is obtained. At selected times after infusion of the Test or Control Article behavioural data can then be collected again.
The assessment of tactile allodynia consisted of measuring the withdrawal threshold of the paw ipsilateral to the site of nerve injury in response to probing with a series of calibrated von Frey filaments (innocuous stimuli). Animals were acclimated to the suspended wire-mesh cages for 30 min before testing. Each von Frey filament was applied perpendicularly to the plantar surface of the ligated paw of rats for 5 sec. A positive response was indicated by a sharp withdrawal of the paw. For rats, the first testing filament is 4.31. Measurements were taken before and after administration of test articles. […] The protocol was repeated until three changes in behaviour were determined (“up and down” method) (Chaplan et al., J. Neurosci. Methods 53:55-63 (1994)). The 50% paw withdrawal threshold was determined as (10^[Xf+kδ])/10,000, where Xf=the value of the last von Frey filament employed, k=Dixon value for the positive/negative pattern, and δ=the logarithmic difference between stimuli. The cut-off values for rats were no less than 0.2 g and no higher than 15 g (5.18 filament); for mice no less than 0.03 g and no higher than 2.34 g (4.56 filament). A significant drop of the paw withdrawal threshold compared to the pre-treatment baseline is considered tactile allodynia.

[3] = system: Lamina I/II spinal cord neurons; assay: Lamina assay, current-clamp recordings in spinal cord slices; assay type: cell-based, rat; details: Lamina I and II neurons
Text: Male Wistar rats (P6 to P9 for voltage-clamp and P15 to P18 for current-clamp recordings) were anaesthetized through intraperitoneal injection of Inactin (Sigma). The spinal cord was then rapidly dissected out and placed in an ice-cold solution protective sucrose solution containing (in mM): 50 sucrose, 92 NaCl, 15 D-Glucose, 26 NaHCO3, 5 KCl, 1.25 NaH2PO4, 0.5 CaCl2, 7 MgSO4, 1 kynurenic acid, and bubbled with 5% CO2/95% O2. The meninges, dura, and dorsal and ventral roots were then removed from the lumbar region of the spinal cord under a dissecting microscope. The “cleaned” lumbar region of the spinal cord was glued to the vibratome stage and immediately immersed in ice cold, bubbled, sucrose solution. For current-clamp recordings, 300 to 350 μm parasagittal slices were cut to preserve the dendritic arbour of lamina I neurons, while 350 to 400 μm transverse slices were prepared for voltage-clamped […] channel recordings. Slices were allowed to recover for 1 hour at 35° C. in Ringer solution containing (in mM): 125 NaCl, 20 D-Glucose, 26 NaHCO3, 3 KCl, 1.25 NaH2PO4, 2 CaCl2, 1 MgCl2, 1 kynurenic acid, 0.1 picrotoxin, bubbled with 5% CO2/95% O2. The slice recovery chamber was then returned to room temperature (20 to 22° C.) and all recordings were performed at this temperature.
Neurons were visualized using IR-DIC optics (Zeiss Axioskop 2 FS plus, Gottingen, Germany), and neurons from lamina I and the outer layer of lamina II were selected based on their location relative to the substantia gelatinosa layer. Neurons were patch-clamped using borosilicate glass patch pipettes with resistances of […] Current-clamp recordings of lamina I/II neurons in the intact slice, the external recording solution was the above Ringer solution, while the internal patch pipette solution contained (in mM): 140 KGluconate, 4 NaCl, 10 HEPES, 1 EGTA, 0.5 MgCl2, 4 MgATP, 0.5 Na2GTP, adjusted to pH 7.2 with 5 M KOH and to 290 mOsm with D-Mannitol (if necessary). […]

[4] = system: 6 Hz psychomotor seizure; assay: 6 Hz psychomotor seizure model of partial epilepsy; assay type: in vivo, mice; set-up: concentration or dose not given beside the values
Text: Compounds can also be evaluated for the protection against seizures induced by a 6 Hz, 0.2 ms rectangular pulse width of 3 s duration, at a stimulus intensity of 32 mA (CC97) applied to the cornea of male CF1 mice (20-30 g) according to procedures described by Barton et al, “Pharmacological Characterization of the 6 Hz Psychomotor Seizure Model of Partial Epilepsy,” Epilepsy Res. 47(3):217-27 (2001). Seizures are characterised by the expression of one or more of the following behaviours: stun, forelimb clonus, twitching of the vibrissae and Straub-tail immediately following electrical stimulation.

Compound	Rotarod Assay (% impaired) ([1]; 0.25 hr) [%]	Rotarod Assay (% impaired) ([1]; 0.5 hr) [%]	Rotarod Assay (% impaired) ([1]; 1 hr) [%]	Rotarod Assay (% impaired) ([1]; 2 hr) [%]	Rotarod Assay (% impaired) ([1]; 4 hr) [%]	Rat SNL tactile allodynia (% antiallodynia) ([2]; 1 hr) [%]	Rat SNL tactile allodynia (% antiallodynia) ([2]; 2 hr) [%]	Rat SNL tactile allodynia (% antiallodynia) ([2]; 4 hr) [%]	% Spike Change Mean [3] [%]	Epilepsy 6 Hz (% Protected) ([4]; 0.25 hr) [%]	Epilepsy 6 Hz (% Protected) ([4]; 0.5 hr) [%]	Epilepsy 6 Hz (% Protected) ([4]; 1 hr) [%]	Epilepsy 6 Hz (% Protected) ([4]; 2 hr) [%]	Epilepsy 6 Hz (% Protected) ([4]; 4 hr) [%]	% Antiallodynia (Mean ± SD) ([2]; 1 h) [%]	% Antiallodynia (Mean ± SD) ([2]; 4 h) [%]	anti-allodynia effects ([2]; 1 hr) [%]	anti-allodynia effects ([2]; 2 hr) [%]	anti-allodynia effects ([2]; 4 hr) [%]
N-(3,5- bis(trifluoromethyl) phenyl)-2-(1- (piperidine-3- carbonyl)piperidin-4- yl)acetamide [Compound 2]	25	50	100	100	50	38	44	27	−57.2	50	50	100	33	0					
N[C@@H]1CCCC[C@H]1C(=O)N1CCC(CC(=O)Nc2cc(C(F)(F)F)cc(C(F)(F)F)c2)CC1 (racemic) [Compound 3, trans-2-(1-(2-aminocyclohexanecarbonyl)piperidin-4-yl)-N-(3,5-bis(trifluoromethyl)phenyl)acetamide]	0	75	100	75	50				−51.1	100	75	100	0	50	36 ± 19	4 ± 8	68±12	76±6	42±14
